Test results published in patent US20090159876A1, “ORGANIC SEMICONDUCTOR MATERIAL AND ORGANIC FIELD EFFECT TRANSISTOR” (MITSUBISHI CHEMICAL CORPORATION, priority 2005, published 2009).
Where two headings read alike, the source gives them in different places.

What was measured:
[1] = Evaluation of solubility in specific solvents at 30° C.; assay type: physicochemical
Procedure: The oligothiophene A (hexamer) was dissolved in each of toluene, xylene, ethylbenzene, mesitylene, cyclopentanone, cyclohexanone, methyl chloride, carbon tetrachloride, chlorobenzene, dichlorobenzene, trichlorobenzene, nitrobenzene, methyl ethyl ketone, benzoic acid esters, anisole, phenetole, butyl phenyl ether, methoxytoluene, and benzyl ethyl ether at 30° C., and each solubility was determined. […] In Table 1, the mark o indicates the case where the solubilities of 0.1% by weight and 0.3% by weight for each solvent were observed, and the mark X indicates the other case.

[2] = Evaluation of crystallinity of film by X-ray diffractometry; assay type: physicochemical; conditions: for Crystallinity of Film: In-Plane X-ray diffractometry of film
Procedure: X-ray diffractometry was conducted for the oligothiophene film formed of the oligothiophene A (hexamer) prepared in [Evaluation of Ionization Potential] using a RINT-2000/PC available from Rigaku Corporation.

[3] = Evaluation of ionization potential of film by photoelectron spectrometer; assay type: physicochemical; conditions: film spin-coated from chloroform on quartz substrate (α-6T: film deposited under vacuum); solid state
Procedure: The ionization potential is preferably determined by the method of measuring a sample in a solid state through photoelectron spectroscopy. Examples of the simple devices include a photoelectron spectrometer, model AC-1 (or its successor device) available from Riken Keiki Co., Ltd.
The oligothiophene A (hexamer) (50 mg) prepared in Synthesis 4 was dissolved in chloroform (1 mL) to prepare a solution. This solution was spin-coated on a 2.5 by 2.5 cm^2 quartz substrate available from Furuuchi Chemical Corporation at 1000 rpm. A satisfactory film was produced. The ionization potential (Ip) of this film was determined with a photoelectron spectrometer Model PCR-101 available from Sumitomo Heavy Industries Advanced Machinery. As a reference, an α-6T film deposited on a quartz substrate under vacuum was used (See Comparative Example 1 described below). FIG. 4 is a graph of the ionization potentials observed. The ionization potential (Ip) of the oligothiophene A (hexamer) was 5.34 eV, while that of α-6T was 4.7 eV.

[4] = usual value of representative thiophene materials; cited from earlier work
[5] = 30° C., toluene, xylene, ethylbenzene, mesitylene, cyclopentanone, cyclohexanone and other listed solvents

| Compound | Solubility in Specific Solvents 0.1% by weight [1] | Solubility in Specific Solvents 0.3% by weight [1] | Crystallinity of Film [2] | Ionization Potential [3] | Solubility in Specific Solvents 0.1% by weight [1, 5] | Solubility in Specific Solvents 0.3% by weight [1, 5] | Crystallinity of film (in words) ([2]; In-Plane X-ray diffractometry of spin-coated film) | ionization potential (Ip) [4] |
| --- | --- | --- | --- | --- | --- | --- | --- | --- |
| CCCCCCc1ccc(-c2cc(-c3ccc(CC)cc3)c(-c3ccc(-c4ccc(-c5ccc(-c6sc(-c7cc(-c8ccc(CC)cc8)c(-c8ccc(-c9ccc(-c%10ccc(-c%11sc(-c%12ccc(CCCCCC)s%12)cc%11-c%11ccc(CC)cc%11)s%10)s9)s8)s7)cc6-c6ccc(CC)cc6)s5)s4)s3)s2)s1 [Example 7] | ◯ | ◯ | ◯ | 5.46 eV |  |  |  |  |
| CCCCCCc1ccc(-c2ccc(-c3ccc(-c4ccc(-c5sc(-c6cc(-c7ccc(CC)cc7)c(-c7ccc(-c8ccc(-c9ccc(-c%10ccc(CCCCCC)s%10)s9)s8)s7)s6)cc5-c5ccc(CC)cc5)s4)s3)s2)s1 [Example 3] | ◯ | ◯ | ◯ | 5.26 eV |  |  |  |  |
| CCCCCCc1ccc(-c2ccc(-c3ccc(-c4ccc(-c5ccc(-c6sc(-c7cc(-c8ccc(CC)cc8)c(-c8ccc(-c9ccc(-c%10ccc(-c%11ccc(-c%12ccc(CCCCCC)s%12)s%11)s%10)s9)s8)s7)cc6-c6ccc(CC)cc6)s5)s4)s3)s2)s1 [Example 6] |  |  | ◯ | 5.18 eV | ◯ | ◯ |  |  |

Second part, led by results:

| Solubility in Specific Solvents 0.1% by weight [1] | Solubility in Specific Solvents 0.3% by weight [1] | Crystallinity of Film [2] | Ionization Potential [3] | Solubility in Specific Solvents 0.1% by weight [1, 5] | Solubility in Specific Solvents 0.3% by weight [1, 5] | Crystallinity of film (in words) ([2]; In-Plane X-ray diffractometry of spin-coated film) | Compound | ionization potential (Ip) [4] |
| --- | --- | --- | --- | --- | --- | --- | --- | --- |
| ◯ | ◯ | ◯ | 5.24 eV |  |  |  | CCCCCCc1ccc(-c2ccc(-c3ccc(-c4sc(-c5cc(-c6ccc(CC)cc6)c(-c6ccc(-c7ccc(-c8ccc(CCCCCC)s8)s7)s6)s5)cc4-c4ccc(CC)cc4)s3)s2)s1 [Example 2] |  |
| ◯ | ◯ | ◯ | 5.24 eV |  |  |  | CCCCCCc1ccc(-c2ccc(-c3ccc(-c4ccc(-c5sc(-c6ccc(CCCCCC)s6)cc5-c5ccc(CC)cc5)s4)s3)s2)s1 [Example 5] |  |
|  |  | ◯ | 5.34 eV | ◯ | ◯ | crystalline semiconductor layer | CCCCCCc1ccc(-c2ccc(-c3sc(-c4cc(-c5ccc(CC)cc5)c(-c5ccc(-c6ccc(CCCCCC)s6)s5)s4)cc3-c3ccc(CC)cc3)s2)s1 [Example 1] |  |
| ◯ | ◯ | ◯ | 4.7 eV |  |  |  | c1csc(-c2ccc(-c3ccc(-c4ccc(-c5ccc(-c6cccs6)s5)s4)s3)s2)c1 [α-6T, α-sezithiophene, reference compound] | about 4.7 eV |
